Measurements as given in paper PMC9241695, “Selective Metal Chelation by a Thiosemicarbazone Derivative Interferes with Mitochondrial Respiration and Ribosome Biogenesis in Candida albicans” (Microbiology Spectrum, 2022).
Converted amounts (≈) assume the structure as drawn.

Experiments:
[1] = tested on: C. albicans YEM13; experiment: Microbroth dilution MIC80; assay type: cell-based; settings: Candida albicans
Source text: (§1) Compound library. The thiosemicarbazone derivatives Triapine and COTI-2 were purchased from Med Chem Express (MCE). The other 87 thiosemicarbazones used in this study were previously synthesized by our collaborators (1, 2). Their structures are shown in Table 1 and Table S1 to help the reader clearly understand the relationship between structure and activity.
(§2) Strains and culture conditions. Clinically derived C. albicans isolates, including G5, F5, and Gu5, were kindly provided by Professor Joachim Morschhäuser of the University of Würzburg. Other clinical C. albicans isolates were kindly donated by Professor Qingguo Qi of Shandong University and Qianfoshan Hospital of Shandong Province Other Candida strains were obtained from Jinan Central Hospital.
(§3) The zap1 mutant and its complemented strain were kindly provided by Professor Aaron P. Mitchell of Carnegie Mellon University (3). The C. neoformans strains used in this study was kindly donated by Professor Guojian Liao of Southwest University and A. fumigatus strain used in this study was provided by Professor Ling Lu of Nanjing Normal University. Before in vitro and in vivo experiments, all C. albicans strains were grown on YPD agar plates. After culturing at 30°C for 24 h, colonies of each strain were cultured in liquid YPD medium at 30°C with continuous shaking […]
(§4) Antifungal susceptibility testing. To determine in vitro antifungal activities, the microbroth dilution method was carried out in RPMI1640 medium according to the guidelines of the Clinical and Laboratory Standards Institute (4, 5). The initial concentration in RPMI1640 medium was 1 × 10^3 CFU/mL for the C. albicans and C. neoformans suspensions but 1 × 10^4 CFU/mL for A. fumigatus. The range of final drug concentrations was 0.0156–64 μg/mL. The plates were incubated at35°C for 24 […]
(§5) h (for C. albicans, C. krusei, C. tropicalis, C. parapsilosis) or 48 h (for C. neoformans, A. fumigatus). The MIC was determined based on visible growth inhibition compared with the control. All experiments were performed in duplicate. […]

[2] = tested on: C. tropicalis CT2; experiment: Microbroth dilution MIC80; assay type: cell-based; settings: Candida tropicalis, CT2
Source text: as §1, §2, §3, §4, §5

[3] = tested on: C. albicans CA4; experiment: Microbroth dilution MIC80; assay type: cell-based; settings: Candida albicans, CA4
Source text: as §1, §2, §3, §4, §5

[4] = tested on: C. albicans CA1; experiment: Microbroth dilution MIC80; assay type: cell-based; settings: Candida albicans, CA1
Source text: as §1, §2, §3, §4, §5

[5] = tested on: C. albicans 28I; experiment: Microbroth dilution MIC80; assay type: cell-based; settings: Candida albicans, 28I
Source text: as §1, §2, §3, §4, §5

[6] = tested on: C. neoformans 108; experiment: Microbroth dilution MIC80; assay type: cell-based; settings: Cryptococcus neoformans, 108
Source text: as §1, §2, §3, §4, §5

[7] = tested on: C. albicans 28A; experiment: Microbroth dilution MIC80; assay type: cell-based; settings: Candida albicans, 28A
Source text: as §1, §2, §3, §4, §5

[8] = tested on: C. albicans F5; experiment: Microbroth dilution MIC80; assay type: cell-based; settings: Candida albicans, F5
Source text: as §1, §2, §3, §4, §5

[9] = tested on: A. fumigatus 1161; experiment: Microbroth dilution MIC80; assay type: cell-based; settings: Aspergillus fumigatus, 1161
Source text: as §1, §2, §3, §4, §5

[10] = tested on: C. albicans 24g; experiment: Microbroth dilution MIC80; assay type: cell-based; settings: Candida albicans, 24G
Source text: as §1, §2, §3, §4, §5

[11] = tested on: C. albicans 11e; experiment: Microbroth dilution MIC80; assay type: cell-based; settings: Candida albicans, 11E
Source text: as §1, §2, §3, §4, §5

[12] = tested on: C. albicans 11f; experiment: Microbroth dilution MIC80; assay type: cell-based; settings: Candida albicans, 11F
Source text: as §1, §2, §3, §4, §5

[13] = tested on: C. albicans 28D; experiment: Microbroth dilution MIC80; assay type: cell-based; settings: Candida albicans, 28D
Source text: as §1, §2, §3, §4, §5

[14] = tested on: C. albicans CA3; experiment: Microbroth dilution MIC80; assay type: cell-based; settings: Candida albicans, CA3
Source text: as §1, §2, §3, §4, §5

[15] = tested on: C. albicans YEM15; experiment: Microbroth dilution MIC80; assay type: cell-based; settings: Candida albicans, YEM15
Source text: as §1, §2, §3, §4, §5

[16] = tested on: C. albicans DSY654; experiment: Microbroth dilution MIC80; assay type: cell-based; settings: Candida albicans
Source text: as §1, §2, §3, §4, §5

[17] = tested on: C. albicans SC5314; experiment: MIC of 19ak in the presence of H2O2; assay type: cell-based; settings: Candida albicans, read-out: MIC against C. albicans SC5314 (Table S3)
Protocol: Influence of oxidant or antioxidant molecules on 19ak activity. The MIC of
19ak in the presence of 1–2 mM H2O2 was measured using the broth microdilution
assay as described above. […]

[18] = tested on: C. albicans SC5314; experiment: Antifungal susceptibility testing, microbroth dilution MIC; assay type: cell-based; settings: Candida albicans, SC5314; C. albicans wild-type strain; RPMI1640, 35°C, 24 h; read-out: MIC (μg/mL) against fungi SC5314
Procedure, shortened: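 CLSI microbroth dilution in RPMI1640, final drug range 0.0156–64 μg/mL. Inocula 1 × 10^3 CFU/mL for C. albicans and C. neoformans, 1 × 10^4 CFU/mL for A. fumigatus; 35°C for 24 h (C. albicans) or 48 h (C. neoformans, A. fumigatus). MIC read as visible growth inhibition versus control, in duplicate.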

[19] = Cytotoxicity testing (MTT); assay type: cell-based, human; settings: human, HepG2 cells (hepatocellular carcinoma cell line)
[20] = tested on: human hepatocellular carcinoma cell line HepG2; experiment: Cytotoxicity testing (MTT); assay type: cell-based; settings: ratio of IC50 against HepG2 to MIC80 against C. albicans SC5314
[21] = tested on: CAT; experiment: Catalase (CAT) activity in treated cells; assay type: cell-based; settings: 0.5 μg/mL or above, 6 h
Protocol: Determination of SOD activity. SOD activity was measured using the Superoxide Dismutase Activity Assay Kit (Njjcbio, Nanjing, China) following the manufacturer's instructions. An overnight culture of C. albicans SC5314 was adjusted to 1 × 10^7 cells/mL with RPMI1640 medium and treated with 19ak at a final concentration of 0, 0.125, 0.25, 0.5, or 1 μg/mL for 6 h. After collection by centrifugation, the cells were broken by glass beads in extraction buffer and centrifuged at 4°C. The absorbance of the supernatant of each sample was measured with a microplate reader at450 nm.
Determination of catalase (CAT) activity. CAT activity was measured by using a Catalase Assay Kit (Solarbio, Beijing, China) following the manufacturer's instructions. An overnight culture of C. albicans SC5314 was adjusted to 1 × 10^6 cells/mL with RPMI1640 medium and treated as described above for SOD activity.
The decomposition of H2O2 is directly accompanied by a decrease in absorbance at 240 nm, and the difference in absorbance per unit time (ΔA240) is a measure of […]
Quantitative real-time polymerase chain reaction (qPCR) analysis. C. albicans SC5314 cells (1 × 10^6 cells/mL) were incubated with or without 19ak (0.5,2 μg/mL) in RPMI1640 medium for 6 h. Total RNA was extracted using the hot phenol method, and the RNA quality was analyzed using a spectrophotometer (Eppendorf, Hamburg, Germany). […]

C/C(=N\NC(=S)N(C)C)c1ccccn1 [Compound 19ak]
MIC80 [1]: 0.5 µg/mL (≈ 2.25 µM) | MIC80 [2]: 0.5 µg/mL (≈ 2.25 µM) | MIC80 [3]: 0.125 µg/mL (≈ 0.562 µM) | MIC80 [4]: 0.25 µg/mL (≈ 1.12 µM) | MIC80 [5]: 0.125 µg/mL (≈ 0.562 µM) | MIC80 [6]: 0.25 µg/mL (≈ 1.12 µM) | MIC80 [7]: 0.125 µg/mL (≈ 0.562 µM) | MIC80 [8]: 0.5 µg/mL (≈ 2.25 µM) | MIC80 [9]: 0.5 µg/mL (≈ 2.25 µM) | MIC80 [10]: 0.25 µg/mL (≈ 1.12 µM) | MIC80 [11]: 1 µg/mL (≈ 4.5 µM) | MIC80 [12]: 1 µg/mL (≈ 4.5 µM) | MIC80 [13]: 0.125 µg/mL (≈ 0.562 µM) | MIC80 [14]: 0.125 µg/mL (≈ 0.562 µM) | MIC80 [15]: 0.25 µg/mL (≈ 1.12 µM) | MIC80 [16]: 0.125 µg/mL (≈ 0.562 µM) | MIC ([17]; SC5314, +1 mM H2O2): 0.25 µg/mL | MIC ([17]; SC5314, +2 mM H2O2): 0.5 µg/mL | MIC ([17]; SC5314, without H2O2): 0.125 µg/mL | MIC [18]: 0.125 µg/mL (≈ 0.562 µM) | IC50 [19]: 10.3 µg/mL (≈ 46.3 µM) | Selectivity index HepG2 [20]: 82.4 | CAT activity [21]: increased
